Reference: patent publication US11192863B2, “Antiviral compounds and methods” (Biotron Limited, priority 2003, dated 2021)
Structures can show the parent of a compound that is named as a salt. Where two headings read alike, the source gives them in different places.

Assays:
[1] = biological target: SARS-CoV E protein (Severe acute respiratory syndrome coronavirus, UniProt P59637); assay type: cell-based
[2] = system: human coronavirus OC43; assay: microbe, parasite or virus in culture; assay type: cell-based; conditions: Betacoronavirus 1, OC43, MRC5, 120 h, MRC-5 cells, 5 days post infection
[3] = biological target: Vpu protein (Human immunodeficiency virus type 1 group M subtype B, UniProt P05919); conditions: for Vpu Inhibition (score/# of times tested): halo of growth score between zero and six, XL1-blue E. coli with pPL-Vpu, no adenine, 37° C.
Vpu protein, sequence (P05919 whole entry): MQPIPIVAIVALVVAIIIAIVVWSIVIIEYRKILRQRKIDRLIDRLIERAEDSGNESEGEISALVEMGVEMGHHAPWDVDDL

[4] = system: MHV (strain MHV-A59); conditions: L929 cells
[5] = biological target: 229E-CoV E-protein (Human coronavirus 229E, UniProt P19741); assay: Bacterial bio-assay for 229E-CoV E-protein; conditions: halo of growth score; E. coli expressing E protein at 37° C.
229E-CoV E-protein, sequence (P19741 whole entry): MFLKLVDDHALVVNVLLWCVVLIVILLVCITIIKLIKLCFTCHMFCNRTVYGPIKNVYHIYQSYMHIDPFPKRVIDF

[6] = biological target: SARS E protein ion channel (Severe acute respiratory syndrome coronavirus, UniProt P59637); assay type: biochemical, SARS-CoV
SARS E protein ion channel, sequence (P59637 whole entry, looked up): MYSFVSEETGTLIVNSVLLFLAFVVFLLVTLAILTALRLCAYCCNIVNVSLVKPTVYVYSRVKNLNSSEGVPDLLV

[7] = system: HIV; assay type: cell-based; conditions: for At least 1x log reduction seen in p24 assay?: Table 19b, yes/no
[8] = system: bovine coronavirus (BCV); assay: BCV plaque assay in MDBK cells; assay type: cell-based; conditions: Betacoronavirus 1; BCV plaques in MDBK cells
[9] = system: Dengue 1 strain Hawaii; assay: Dengue cytoproliferation assay in LLC-MK2 cells (Alamar Blue); assay type: cell-based, Dengue virus; conditions: 7 days
[10] = Table 19a, rank among 12 compounds, 1 = highest score

SARS-CoV E protein, sequence (P59637 whole entry, looked up): as above

Structure (SMILES): N=C(N)NC(=O)/C=C/c1ccc(Cl)cc1Cl [2,4-dichlorocinnamolyguanidine]
- SARS E protein Inhibition (score/# of times tested) [1]: 0.63/2 score
- inhibition at 2.5 µM [2]: 36%
- Vpu Inhibition (score/# of times tested) [3]: 0.63/2 score
- Percent reduction in Plaque number/# experiments ([4]; 1 uM): 43/1%
- Percent reduction in Plaque number/# experiments ([4]; 10 uM): 73/1%
- Percent reduction in Plaque number/# experiments ([4]; 20 uM): 76/1%

Structure (SMILES): N=C(N)NC(=O)/C=C/c1c(Cl)cccc1Cl [2,6-dichlorocinnamoylguanidine]
- SARS E protein Inhibition (score/# of times tested) [1]: 2.25/1 score
- inhibition at 2.5 µM [2]: 27%
- Vpu Inhibition (score/# of times tested) [3]: 2.88/2 score
- Percent reduction in Plaque number/# experiments ([4]; 1 uM): 40/1%
- Percent reduction in Plaque number/# experiments ([4]; 10 uM): 70/1%
- Percent reduction in Plaque number/# experiments ([4]; 20 uM): 91/1%
- 229E E protein Inhibition (score) [5]: 1.0 score

Structure (SMILES): N/C(=N\C(=O)c1nc(Cl)c(N)nc1N)NCc1ccc(Cl)cc1Cl [2′4 DichloroBenzamil HCl]
- % Reduction of average current by 100 μM [6]: 78 ± 0%
- SARS E protein Inhibition (score/# of times tested) [1]: 3.00/2 score
- Vpu Inhibition (score/# of times tested) [3]: 1.7/2 score
- Percent reduction in Plaque number/# experiments ([4]; 1 uM): 0/3%
- Percent reduction in Plaque number/# experiments ([4]; 10 uM): 0/3%
- Percent reduction in Plaque number/# experiments ([4]; 20 uM): 12/2%

Structure (SMILES): N=C(N)NC(=O)/C=C/c1ccc(Cl)c(Cl)c1 [3,4-dichlorocinnamoylguanidine]
- SARS E protein Inhibition (score/# of times tested) [1]: 4.15/2 score
- inhibition at 2.5 µM [2]: 90%
- Vpu Inhibition (score/# of times tested) [3]: 2.9/3 score
- Percent reduction in Plaque number/# experiments ([4]; 1 uM): 50/2%
- Percent reduction in Plaque number/# experiments ([4]; 10 uM): 96/1%
- Percent reduction in Plaque number/# experiments ([4]; 20 uM): 91/2%
- 229E E protein Inhibition (score) [5]: 4.4 score

Structure (SMILES): N=C(N)NC(=O)/C=C/c1cccc(OC(F)(F)F)c1 [3-(trifluoromethoxy)cinnamoylguanidine]
- SARS E protein Inhibition (score/# of times tested) [1]: 2.71/1 score
- inhibition at 2.5 µM [2]: 4%
- Vpu Inhibition (score/# of times tested) [3]: 2.44/2 score
- Percent reduction in Plaque number/# experiments ([4]; 1 uM): 41/2%
- Percent reduction in Plaque number/# experiments ([4]; 10 uM): 90/3%
- Percent reduction in Plaque number/# experiments ([4]; 20 uM): 100/1%
- 229E E protein Inhibition (score) [5]: 4.1 score

Structure (SMILES): N=C(N)NC(=O)/C=C/c1cccc(C(F)(F)F)c1 [3-(trifluoromethyl)cinnamoylguanidine]
- Percent of Positive Control ([7]; Drug Conc. 0.625 μM): 38%
- Percent of Positive Control ([7]; Drug Conc. 1.25 μM): 27%
- Percent of Positive Control ([7]; Drug Conc. 2.5 μM): 25%
- Percent of Positive Control ([7]; Drug Conc. 5 μM): 8%
- Percent of Positive Control ([7]; Drug Conc. 10 μM): 11%
- At least 1x log reduction seen in p24 assay? [7]: yes
- SARS E protein Inhibition (score/# of times tested) [1]: 2.67/1 score
- inhibition at 2.5 µM [2]: 84%
- EC50 [8]: 3 µM
- Bacterial assay rank order [3, 10]: 2
- Bacterial assay rank order ([3]; Table 19b): 2
- Vpu Bacterial score ([3]; Table 19b): 3.7
- Vpu Inhibition (score/# of times tested) [3]: 3.7/2 score
- Percent reduction in Plaque number/# experiments ([4]; 1 uM): 40/1%
- Percent reduction in Plaque number/# experiments ([4]; 10 uM): 83/1%
- Percent reduction in Plaque number/# experiments ([4]; 20 uM): 98/1%
- 229E E protein Inhibition (score) [5]: 2.3 score

Structure (SMILES): CC(C)c1ccc(/C=C/C(=O)NC(=N)N)cc1 [4-isopropylcinnamoylguanidine]
- SARS E protein Inhibition (score/# of times tested) [1]: 3.16/2 score
- inhibition at 2.5 µM [2]: 68%
- Vpu Inhibition (score/# of times tested) [3]: 1.4/2 score
- Percent reduction in Plaque number/# experiments ([4]; 1 uM): 41/3%
- Percent reduction in Plaque number/# experiments ([4]; 10 uM): 93/3%
- Percent reduction in Plaque number/# experiments ([4]; 20 uM): 95/3%
- 229E E protein Inhibition (score) [5]: 4.9 score

Structure (SMILES): N=C(N)NC(=O)c1ccc(-c2ccccc2)cc1 [4-phenylbenzoylguanidine]
- Percent of Positive Control ([7]; Drug Conc. 0.625 μM): 10%
- Percent of Positive Control ([7]; Drug Conc. 1.25 μM): 216%
- Percent of Positive Control ([7]; Drug Conc. 2.5 μM): 9%
- Percent of Positive Control ([7]; Drug Conc. 5 μM): 4%
- Percent of Positive Control ([7]; Drug Conc. 10 μM): 26%
- At least 1x log reduction seen in p24 assay? [7]: no
- SARS E protein Inhibition (score/# of times tested) [1]: 0.63/2 score
- EC50 [8]: 190 µM
- Bacterial assay rank order [3, 10]: 7
- Bacterial assay rank order ([3]; Table 19b): 7
- Vpu Bacterial score ([3]; Table 19b): 2.8
- Vpu Inhibition (score/# of times tested) [3]: 2.75/5 score
- Percent reduction in Plaque number/# experiments ([4]; 1 uM): 5/1%
- Percent reduction in Plaque number/# experiments ([4]; 10 uM): 24/1%
- Percent reduction in Plaque number/# experiments ([4]; 20 uM): 32/1%
- 229E E protein Inhibition (score) [5]: 2.3 score

Structure (SMILES): COc1ccc(Br)cc1/C=C/C(=O)NC(=N)N [5-bromo-2-methoxycinnamoylguanidine]
- inhibition at 2.5 µM [2]: 24%
- Vpu Inhibition (score/# of times tested) [3]: 1.9/2 score
- Percent reduction in Plaque number/# experiments ([4]; 1 uM): 66/1%
- Percent reduction in Plaque number/# experiments ([4]; 10 uM): 100/1%
- 229E E protein Inhibition (score) [5]: 3.6 score

Structure (SMILES): N=C(N)NC(=O)/C=C/c1ccccc1Br [(2-Bromocinnamoyl)guanidine]
- % Reduction of average current by 100 μM [6]: 88 ± 6%
- SARS E protein Inhibition (score/# of times tested) [1]: 2.47/3 score
- Vpu Inhibition (score/# of times tested) [3]: 3.7/2 score
- Percent reduction in Plaque number/# experiments ([4]; 1 uM): 52/3%
- Percent reduction in Plaque number/# experiments ([4]; 10 uM): 89/3%
- Percent reduction in Plaque number/# experiments ([4]; 20 uM): 91/2%
- 229E E protein Inhibition (score) [5]: 0.9 score

Structure (SMILES): N=C(N)NC(=O)/C=C/c1ccccc1Cl [(2-Chlorocinnamoyl)guanidine]
- SARS E protein Inhibition (score/# of times tested) [1]: 3.1/3 score
- inhibition at 2.5 µM [2]: 96%
- Antiviral Percent of Negative Control ([9]; Drug Conc. 0.625 μM): 64.3%
- Antiviral Percent of Negative Control ([9]; Drug Conc. 1.25 μM): 52.5%
- Antiviral Percent of Negative Control ([9]; Drug Conc. 2.5 μM): 22.7%
- Antiviral Percent of Negative Control ([9]; Drug Conc. 5 μM): 7.7%
- Antiviral Percent of Negative Control ([9]; Drug Conc. 10 μM): 8.4%
- Vpu Inhibition (score/# of times tested) [3]: 4.0/4 score
- Percent reduction in Plaque number/# experiments ([4]; 1 uM): 53/3%
- Percent reduction in Plaque number/# experiments ([4]; 10 uM): 88/3%
- Percent reduction in Plaque number/# experiments ([4]; 20 uM): 95/2%
- 229E E protein Inhibition (score) [5]: 0.1 score

Structure (SMILES): NC(N)=NC(=O)/C=C/c1ccc(Br)cc1 [(4-Bromocinnamoyl)guanidine]
- SARS E protein Inhibition (score/# of times tested) [1]: 1.69/2 score
- inhibition at 2.5 µM [2]: 29%
- Vpu Inhibition (score/# of times tested) [3]: 2.5/4 score
- Percent reduction in Plaque number/# experiments ([4]; 1 uM): 52/3%
- Percent reduction in Plaque number/# experiments ([4]; 10 uM): 98/3%
- Toxic (noted in place of plaque reduction) ([4]; 20 uM): Toxic/2
- 229E E protein Inhibition (score) [5]: 2.0 score

Structure (SMILES): NC(N)=NC(=O)/C=C/c1ccc(Cl)cc1 [(4-Chlorocinnamoyl)guanidine]
- SARS E protein Inhibition (score/# of times tested) [1]: 1.94/2 score
- inhibition at 2.5 µM [2]: 36%
- Vpu Inhibition (score/# of times tested) [3]: 2.7/5 score
- Percent reduction in Plaque number/# experiments ([4]; 1 uM): 43/3%
- Percent reduction in Plaque number/# experiments ([4]; 10 uM): 88/2%
- Percent reduction in Plaque number/# experiments ([4]; 20 uM): 97/2%
- 229E E protein Inhibition (score) [5]: 1.4 score

Structure (SMILES): NC(N)=NC(=O)/C=C/C=C/c1ccccc1 [(5-Phenyl-penta-2,4-dienoyl)guanidine]
- At least 1x log reduction seen in p24 assay? [7]: no
- SARS E protein Inhibition (score/# of times tested) [1]: 0.44/2 score
- inhibition at 2.5 µM [2]: 9%
- EC50 [8]: 95 µM
- Bacterial assay rank order [3, 10]: 8
- Bacterial assay rank order ([3]; Table 19b): 8
- Vpu Bacterial score ([3]; Table 19b): 2.6
- Vpu Inhibition (score/# of times tested) [3]: 2.56/2 score
- Percent reduction in Plaque number/# experiments ([4]; 1 uM): 17/1%
- Percent reduction in Plaque number/# experiments ([4]; 10 uM): 24/1%
- Percent reduction in Plaque number/# experiments ([4]; 20 uM): 27/1%
- 229E E protein Inhibition (score) [5]: 1.8 score

Structure (SMILES): O=C(CCc1ccccc1)NC(=Nc1ccccc1)NC(=O)CCc1ccccc1 [N,N′-bis(3phenylpropanoyl)-N″-phenylguanidine]
- % Reduction of average current by 100 μM [6]: 88 ± 6%
- SARS E protein Inhibition (score/# of times tested) [1]: 1.33/3 score
- Vpu Inhibition (score/# of times tested) [3]: 2.25/3 score
- Percent reduction in Plaque number/# experiments ([4]; 1 uM): 1/3%
- Percent reduction in Plaque number/# experiments ([4]; 10 uM): 40/4%
- Percent reduction in Plaque number/# experiments ([4]; 20 uM): 67/3%
- 229E E protein Inhibition (score) [5]: 0.1 score
